Results published in PubChem BioAssay (NCI).
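Dose response: 5 concentrations. Exposure: 48 h. Format: 96-well plates. Endpoint: linear interpolation; highest concentration if not reached. GI50: concentration for 50% inhibition of growth. Definition used: TGI = concentration required for complete inhibition of growth.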

How the values were obtained:
Test in all cases: NCI-60 cell line screen, 48 h
786-0 renal = system: 786-0 renal
HL-60(TB) leukemia = system: HL-60(TB) leukemia
HOP-62 NSCLC = system: HOP-62 NSCLC
NCI-H23 lung = system: NCI-H23 lung
NCI-H522 lung = system: NCI-H522 lung
SF-295 CNS = system: SF-295 CNS
SF-539 CNS = system: SF-539 CNS
A498 renal = system: A498 renal
MDA-MB-231 breast = system: MDA-MB-231 breast
MDA-MB-435 = system: MDA-MB-435

Row | SMILES | TGI (786-0 renal) | TGI (HL-60(TB) leukemia) | TGI (HOP-62 NSCLC) | TGI (NCI-H23 lung) | TGI (NCI-H522 lung) | TGI (SF-295 CNS) | TGI (SF-539 CNS) | TGI (A498 renal) | GI50 (786-0 renal) | GI50 (NCI-H23 lung) | GI50 (A498 renal) | GI50 (HL-60(TB) leukemia) | GI50 (HOP-62 NSCLC) | GI50 (MDA-MB-231 breast) | TGI (MDA-MB-231 breast) | GI50 (NCI-H522 lung) | GI50 (SF-295 CNS) | GI50 (SF-539 CNS) | TGI (MDA-MB-435)
1 | CC(=O)Nc1ccc(/C=c2\sc3nnc(CCC(=O)Nc4ccccc4Cl)n3c2=O)cc1 | 48.9 µM | 41 µM | > 100 µM | > 100 µM | 36.2 µM | 38.9 µM | 58 µM | – | – | – | – | – | – | – | – | – | – | – | –
2 | COc1ccc(OC(C)=O)c2c1CCC=CC2=O | 32.5 µM | 6.7 µM | 28 µM | 32.8 µM | 3.8 µM | 35.4 µM | 30.9 µM | 37.5 µM | – | – | – | – | – | – | – | – | – | – | –
3 | C=C=C(C(=O)OC)S(=O)c1ccccc1[N+](=O)[O-] (stereo unspecified) | > 100 µM | > 100 µM | > 100 µM | > 100 µM | 75.9 µM | > 100 µM | > 100 µM | > 100 µM | – | – | – | – | – | – | – | – | – | – | –
4 | COC(=O)C(Cc1nc2ccccc2[nH]c1=O)/C(=N\NC(C)(C)C)C(=O)Nc1c(C)cc(Br)cc1C (stereo unspecified) | 34.4 µM | – | > 100 µM | 78 µM | 29 µM | > 100 µM | 44.5 µM | 69.5 µM | – | – | – | – | – | – | – | – | – | – | –
5 | COC(=O)C(=O)C(C(=O)C(=O)Nc1cccc(C(C)=O)c1)c1nc2ccc([N+](=O)[O-])cc2[nH]c1=O (stereo unspecified) | > 100 µM | > 100 µM | > 100 µM | > 100 µM | > 100 µM | > 100 µM | > 100 µM | > 100 µM | – | – | – | – | – | – | – | – | – | – | –
6 | CN(C)c1ccc(/C=C/C(=O)[O-])cc1.CN(C)c1ccc(/C=C/C(=O)[O-])cc1.[Cu+2] | > 100 µM | > 100 µM | > 100 µM | > 100 µM | > 100 µM | > 100 µM | > 100 µM | > 86.4 µM | 59.5 µM | > 100 µM | – | – | – | – | – | – | – | – | –
7 | C[C@]12CC[C@@H]3c4cc(OC(F)F)c(O)cc4CC[C@H]3[C@@H]1CC[C@@H]2OS(N)(=O)=O | > 100 µM | 2.8 µM | 35.7 µM | 50.8 µM | 18.4 µM | 3.02 µM | 14.4 µM | 4.35 µM | 1.26 µM | 1.46 µM | 0.321 µM | 0.313 µM | 0.693 µM | 2.68 µM | 41.5 µM | 0.324 µM | 0.33 µM | 0.455 µM | –
8 | O=C1CC(c2c(-c3ccccc3)[nH]c3ccccc23)C(=O)N1 (stereo unspecified) | > 100 µM | > 100 µM | > 100 µM | > 100 µM | – | > 100 µM | > 100 µM | > 100 µM | – | – | – | – | – | – | – | – | – | – | –
9 | COc1cccc2ccc(C(=O)c3ccccc3)nc12 | > 100 µM | – | > 100 µM | > 100 µM | > 100 µM | > 100 µM | > 100 µM | – | – | – | – | – | – | – | – | – | – | – | –
10 | O=C(O)/C=C/C(=O)N1Cc2cc3ccccc3nc2C1 | > 100 µM | > 100 µM | > 100 µM | > 100 µM | > 100 µM | > 100 µM | > 100 µM | – | – | – | – | – | – | – | > 100 µM | – | – | – | > 100 µM
11 | CC1=Nc2ccccc2NC(c2ccoc2)C1 (stereo unspecified) | > 100 µM | > 100 µM | > 100 µM | > 100 µM | > 100 µM | > 100 µM | > 100 µM | > 100 µM | – | – | – | – | – | – | – | – | – | – | –
